Patent US20040038855A1 (priority 1999, published 2004)

Columns and labels:
[1] = target: T1, MCH1 receptor binding sites in the rat CNS (Rattus norvegicus, UniProt P97639); test: Receptor autoradiography with [3H]Compound 10 on rat brain and spinal cord sections; parameters: key to Density of MCH1 receptor binding sites: absent (−); weak (+); moderate (++); heavy (+++); intense (++++); conditions: for Density of MCH1 receptor binding sites: 0.1 nM [3H] Compound 10, 1 μM prazosin, 100 μM dopamine, rat CNS
T1 construct: from tissue; host or cells: coronal brain and spinal cord sections of male Sprague-Dawley rats
Experimental: Male Sprague-Dawley rats (Charles Rivers, Rochester, N.Y.) were euthanized using CO2 and decapitated and their brains rapidly removed and frozen on crushed dry ice. Coronal sections were cut at 20 μm using a cryostat and thaw-mounted onto gelatin-coated slides then stored at −20° C. until use.
Dopamine, prazosin, and phenanthroline were obtained from Sigma (St. Louis, Mo.). Phenylmethylsulfonyl Fluoride (PMSF) was from Calbiochem (La Jolla, Calif.). See also Chemical Synthetic Methods described hereinafter.
Tissue sections were allowed to equilibrate to room temperature for one hour. Sections were incubated at 25° C. for 1.5 hours in 50 mM Tris-HCl buffer, pH 7.4, containing 10 mM MgCl2, 0.16 mM PMSF, 0.3 mM phenanthroline, 0.2% bovine serum albumin (Boehringer Mannheim, Indianapolis, Ind.), 100 μM dopamine, 1 μM prazosin, […] Following incubation the sections were washed twice for 5 minutes each in 4° C. 50 mM Tris-buffer, pH 7.4, then rapidly dipped in ice-cold distilled water to remove the salts. Tissues were dried under a stream of cold air and apposed together with ^3H-plastic standard scales, to Hyperfilm-^3H (Amersham, Piscataway, N.J.) for 6 weeks. Films were developed using a Kodak developer-D19 and Rapid fixer (Kodak, Rochester, N.Y.). […]

human MCH1 receptor = human MCH1 receptor (Homo sapiens, UniProt Q99705); test: Saturation and competition binding of [3H]Compound 10, membranes of Cos-7 cells transfected with MCH1; parameters: expressed in transfected cells; host or cells: COS-7
Experimental: Saturation equilibrium binding of [3H]Compound 10 to the human MCH1 receptor. Membrane preparations from Cos-7 cells transfected with MCH1 were incubated with varying concentrations of [3H]Compound 10 (SA: 56 Ci/mmol) at room temperature for 90 min, in a volume of 0.250 ml. The reaction was terminated by filtration in GF/C filters, and the radioactivity determined by scintillation counting. Non-specific binding was defined as the amount of radioactivity retained in the filter after incubating the reaction mixture in the presence of unlabeled Compound 10 ([…]).
Competition binding of [3H]Compound 10 to the human MCH1 receptor. […] The reaction was terminated by filtration in GF/C filters and the radioactivity bound to the membrane was determined by scintillation counting.
[3H]Compound 10 was tested for its ability to bind to membrane preparations of cells expressing the human MCH1 receptor.

[2] = tested on: micturition reflex, conscious male Sprague Dawley rats; test: Continuous Slow Transvesicular Infusion (CSTI) rat model; assay type: in vivo; parameters: key to Effect of MCH1 antagonist in the CSTI model: B = Produced an increase in bladder capacity in rats relative to baseline capacity; conditions: bladder capacity, intragastric
Experimental: The effects of compounds on the micturition reflex were assessed in the “distension-induced rhythmic contraction” (DIRC), as described in previous publications (e.g. Maggi et al, 1987; Morikawa et al, 1992), and Continuous Slow Transvesicular Infusion (CSTI) models in rats. Male Sprague Dawley rats weighing approximately 300 g were used for the study. Rats were anaesthetized with pentobarbitone sodium (50 mg/kg, i.p). Through a median abdominal incision, bladder was exposed and a polyethylene cannula (PE 50) was introduced into the bladder through a small cut on the dome of the bladder and the cannula was secured with a purse string suture. The other end of the cannula was exteriorized subcutaneously at the dorsal neck area. Similarly, another cannula (PE 50) was introduced into the stomach through a paramedian abdominal incision with the free end exteriorized subcutaneously to the neck region. The surgical wounds were closed with silk 4-0 suture and the animal was allowed to recover with appropriate post surgical care. On the following day, the animal was placed in a rat restrainer. The open end of the bladder cannula was connected to a pressure transducer as well as infusion pump through a three-way stopcock. The bladder voiding cycles were initiated by continuous infusion of normal saline at the rate of 100 ul/min. The repetitive voiding contractions were recorded on a Power Lab on-line data acquisition software. After recording the basal voiding pattern for an hour, the test drug or vehicle was administered directly into stomach through the intragastric catheter and the voiding cycles were monitored for 5 hours. Micturition pressure and frequency were calculated before and after the treatment (at every 30 min interval) for each animal. Bladder capacity was calculated from the micturition frequency, based on the constant infusion of 100 ul/min. The effect of the test drug was expressed as a percentage of basal, pre-drug bladder capacity. WAY 100635 was used as positive control for comparison.

rat MCH1 receptor = target: T2, rat MCH1 receptor (Rattus norvegicus, UniProt P97639); test: Binding affinity (Ki) at the rat MCH1 receptor; conditions: Examples 142-153; read-out: Ki (nM) rMCH1
T2 construct: expressed in transfected cells

[3] = tested on: micturition reflex, anesthetized female Sprague Dawley rats; test: Distension-induced rhythmic contraction (DIRC) model; assay type: in vivo, rat; parameters: key: A = Produced a significant increase in contraction interval relative to pre-drug interval; conditions: contraction interval, i.v. or i.p.
Experimental: The effects of compounds on the micturition reflex were assessed in the “distension-induced rhythmic contraction” (DIRC), as described in previous publications (e.g. Maggi et al, 1987; Morikawa et al, 1992), and Continuous Slow Transvesicular Infusion (CSTI) models in rats.
Female Sprague Dawley rats weighing approximately 300 g were anesthetized with subcutaneous urethane (1.2 g/kg). The trachea was cannulated with PE240 tubing to provide a clear airway throughout the experiment. A midline abdominal incision was made and the left and right ureters were isolated. The ureters were ligated distally (to prevent escape of fluids from the bladder) and cannulated proximally with PE10 tubing. The incision was closed using 4-0 silk sutures, leaving the PE10 lines routed to the exterior for the elimination of urine. The bladder was canulated via the transurethral route using PE50 tubing inserted 2.5 cm beyond the urethral opening. This cannula was secured to the tail using tape and connected to a pressure transducer. To prevent leakage from the bladder, the cannula was tied tightly to the exterior urethral opening using 4-0 silk.
To initiate the micturition reflex, the bladder was first emptied by applying pressure to the lower abdomen, and then filled with normal saline in […] (maximum 2 ml) until spontaneous bladder contractions occurred (typically 20-40 mmHg at a rate of one contraction every 2 to 3 minutes. Once a regular rhythm was established, vehicle (saline) or Test Compounds were administered i.v. or i.p. to explore their effects on bladder activity. The 5-HT1A antagonist WAY-100635 was given as a positive control. Data were expressed as contraction interval (in seconds) before drug application (basal), or after the application of vehicle or test article.

T1 sequence (P97639 whole entry): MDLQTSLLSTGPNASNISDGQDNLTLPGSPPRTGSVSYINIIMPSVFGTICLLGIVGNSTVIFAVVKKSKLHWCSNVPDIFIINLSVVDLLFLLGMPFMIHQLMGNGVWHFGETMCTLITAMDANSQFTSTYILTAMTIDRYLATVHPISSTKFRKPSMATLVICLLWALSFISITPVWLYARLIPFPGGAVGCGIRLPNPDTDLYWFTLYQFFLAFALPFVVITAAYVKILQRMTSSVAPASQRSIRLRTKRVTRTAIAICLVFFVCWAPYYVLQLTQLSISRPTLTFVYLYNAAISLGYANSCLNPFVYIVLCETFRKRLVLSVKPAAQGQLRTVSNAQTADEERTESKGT
Chain of human MCH1 receptor (Q99705 whole entry): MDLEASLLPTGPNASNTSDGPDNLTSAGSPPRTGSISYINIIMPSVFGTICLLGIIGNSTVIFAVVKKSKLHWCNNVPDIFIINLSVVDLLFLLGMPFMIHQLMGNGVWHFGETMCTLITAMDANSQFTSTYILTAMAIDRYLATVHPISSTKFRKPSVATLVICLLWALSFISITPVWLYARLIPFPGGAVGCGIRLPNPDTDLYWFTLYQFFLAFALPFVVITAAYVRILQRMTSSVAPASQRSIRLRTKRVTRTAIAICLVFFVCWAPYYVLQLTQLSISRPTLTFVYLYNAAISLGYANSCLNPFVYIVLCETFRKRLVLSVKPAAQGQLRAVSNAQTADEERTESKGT
T2 sequence (P97639 whole entry): as the sequence (P97639 whole entry) above

[3H]C1CN(CCCNC(=O)N2C(=O)NC(COC)=C(C(=O)OC)[C@@H]2c2ccc(F)c(F)c2)CCC1([3H])c1cccc(NC(C)=O)c1 (stereo partly drawn) [[3H]Compound 10, TRITIATED METHYL (4S)-3-{[(3-{4-[3-(ACETYLAMINO)PHENYL]-1-PIPERIDINYL}PROPYL)AMINO]CARBONYL}-4-(3,4-DIFLUOROPHENYL)-6-(METHOXYMETHYL)-2-OXO-1,2,3,4-TETRAHYDRO-5-PYRIMIDINECARBOXYLATE]
specific binding ([1]; 0.1 nM with 100 μM dopamine and 1 μM prazosin, nonspecific: 10 μM unlabeled Compound 10): approximately 95%
Density of MCH1 receptor binding sites ([1]; Amygdala: Anterior cortical n.): +
Density of MCH1 receptor binding sites ([1]; Amygdala: Basolateral amygdaloid n.): +
Density of MCH1 receptor binding sites ([1]; Amygdala: Bed n. Of the stria terminalis): ++
Density of MCH1 receptor binding sites ([1]; Amygdala: Central amygdaloid n.): +
Density of MCH1 receptor binding sites ([1]; Basal Ganglia: Accumbens n., core): +++
Density of MCH1 receptor binding sites ([1]; Basal Ganglia: Accumbens n., shell): ++++
Density of MCH1 receptor binding sites ([1]; Basal Ganglia: Caudate-putamen): +++
Density of MCH1 receptor binding sites ([1]; Basal Ganglia: Globus pallidus): −
Density of MCH1 receptor binding sites ([1]; Basal Ganglia: Medial septal n.): +
Density of MCH1 receptor binding sites ([1]; Basal Ganglia: Septohippocampal n.): +
Density of MCH1 receptor binding sites ([1]; Cerebellum): −
Density of MCH1 receptor binding sites ([1]; Diencephalon, Thalamus: Anterodorsal n.): +
Density of MCH1 receptor binding sites ([1]; Diencephalon, Thalamus: Centromedial n.): +
Density of MCH1 receptor binding sites ([1]; Diencephalon, Thalamus: Mediodorsal n.): −
Density of MCH1 receptor binding sites ([1]; Diencephalon, Thalamus: Paraventricular n.): +
Density of MCH1 receptor binding sites ([1]; Diencephalon, Thalamus: Reticular n.): +
Density of MCH1 receptor binding sites ([1]; Diencephalon: Hypothalamus): +
Density of MCH1 receptor binding sites ([1]; Hippocampal formation: CA1): ++
Density of MCH1 receptor binding sites ([1]; Hippocampal formation: CA2): ++
Density of MCH1 receptor binding sites ([1]; Hippocampal formation: CA3): ++
Density of MCH1 receptor binding sites ([1]; Hippocampal formation: Pre/parasubiculum): ++
Density of MCH1 receptor binding sites ([1]; Locus coeruleus (listed under Mesencephalon)): ++
Density of MCH1 receptor binding sites ([1]; Mesencephalon: Caudal linear raphe n.): +
Density of MCH1 receptor binding sites ([1]; Mesencephalon: Interpeduncular n.): ++
Density of MCH1 receptor binding sites ([1]; Mesencephalon: Periaqueductal gray): +
Density of MCH1 receptor binding sites ([1]; Mesencephalon: Pontine n.): +
Density of MCH1 receptor binding sites ([1]; Mesencephalon: Substantia nigra): +
Density of MCH1 receptor binding sites ([1]; Mesencephalon: Superior colliculus): ++
Density of MCH1 receptor binding sites ([1]; Olfactory System: Anterior olfactory n.): +
Density of MCH1 receptor binding sites ([1]; Olfactory System: Islands of Calleja, major): +++
Density of MCH1 receptor binding sites ([1]; Olfactory System: Olfactory tubercle): +++
Density of MCH1 receptor binding sites ([1]; Spinal cord: Dorsal horn): +
Density of MCH1 receptor binding sites ([1]; Spinal cord: Ventral horn): +
Density of MCH1 receptor binding sites ([1]; Telencephalon: Claustrum): ++
Density of MCH1 receptor binding sites ([1]; Telencephalon: Dorsal endopiriform n.): +
maximum number of binding sites (Bmax) (human MCH1 receptor): 870 fmol/mg protein

Cc1onc(-c2c(Cl)cccc2Cl)c1C(=O)NCCCCCN1CCC(c2cccc(NC(=O)C(C)C)c2)CC1 [Example 149]
Effect of MCH1 antagonist in the CSTI model [2]: B
Ki (rat MCH1 receptor): 7.1 nM
Effect of MCH1 antagonist in the DIRC model [3]: A
